Assay results reported in patent US10273290B2, “Hydrocarbon double-stapled stabilized HIV-1 GP41 heptad repeat domain peptides” (DANA-FARBER CANCER INSTITUTE, INC., priority 2009, dated 2019).
“Also recorded” adds a separate entry of the source. Bridge positions count the residues as written; N and C are the ends. Square brackets hold non-standard residues; d marks the D form. Peptide text beside a SMILES is read from it. S5 = C=CCCC[C@](C)(N)C(=O)O; Nle = CCCC[C@H](N)C(=O)O

Columns and labels:
[1] = test system: HIV-1 strains HXBc2, ADA, and HXBc2P 3.2; test: Luciferase-based HIV-1 infectivity assay, three strains; type: cell-based
Protocol: Also the direct inhibitory activity of modified polypeptides and the antibodies targeted thereto can be quantified based upon their capacity to directly block HIV infection of CD4-positive and CCR5-expressing canine thymus cells. […] The identical experiment is performed with the amphotropic murine leukemia virus (AMLV), to monitor for any nonspecific effects of the modified polypeptides or antibodies.
(§1) HIV-1 infectivity assays were performed using known methods (Madani et al., 2007 Inhibition of human immunodeficiency virus envelope glycoprotein-mediated single cell lysis by low-molecular-weight antagonists of viral entry. J Virol, 81: 532-538; and Si et al., 2001 Envelope glycoprotein determinants of neutralization resistance in a simian-human immunodeficiency virus (SHIV-HXBc2P 3.2) derived by passage in monkeys. J Virol, 75:4208-4218; both incorporated herein by reference). […] Virus-containing supernatants were harvested 24-30 hr after transfection, filtered, aliquoted, and stored at −80° C. Target cells were seeded at a density of 6×10^3 cells/well in 96-well plates 24 hours prior to infection. Cf2Th-CD4-CCR5 cells were used for infections by viruses with the ADA, YU2, and A-MLV envelope glycoproteins, and Cf2Th-CD4-CXCR4 cells used for HXBc2, HXBc2P 3.2, and A-MLV. On the day of infection, the structured peptides (0-3 μM) were added to recombinant viruses (10,000 RT units) to a final volume of 50 μL and incubated at 37° C. for 30 min. Media was then removed and the target cells incubated with virus-peptide mixture for 48 hours at 37° C. The media was again removed and the cells lysed with 30 μL of passive lysis buffer (Promega) and three freeze-thaw cycles.
Recombinant HIV-1 bearing the envelope glycoproteins from three distinct HIV-1 strains, HXBc2, ADA, and HXBc2P 3.2, and a negative control virus bearing the amphotropic murine leukemia virus (A-MLV) envelope glycoproteins, were evaluated.

[2] = test system: resistant primary R5 isolate YU2; test: Luciferase-based HIV-1 infectivity assay, YU2; type: cell-based; details: compared to T649v
Source text: Also the direct inhibitory activity of modified polypeptides and the antibodies targeted thereto can be quantified based upon their capacity to directly block HIV infection of CD4-positive and CCR5-expressing canine thymus cells. Recombinant HIV-1 viruses (eg. HXBc2, YU2, and additional strains available through the NIH AIDS Research and Reference Reagent Program) expressing firefly luciferase and containing the indicated envelope glycoproteins can be used to infect Cf2Th-CD4-CCR5/CXCR4 cells in the presence of serially diluted modified HIV-1 gp41 polypeptides or antibodies targeted thereto After 48 hours, the cells are lysed and luciferase activity is quantified (Si, Z. H., M. Cayabyab, and J. Sodroski, Journal of Virology, 2001. 75(9): p. 4208-4218 Si, Z. H., et al., PNAS, 2004. 101(14): p. 5036-5041). The identical experiment is performed with the amphotropic murine leukemia virus (AMLV), to monitor for any nonspecific effects of the modified polypeptides or antibodies. […]
HIV-1 infectivity assays were performed using known methods (Madani et al., 2007 Inhibition of human immunodeficiency virus envelope glycoprotein-mediated single cell lysis by low-molecular-weight antagonists of viral entry. J Virol, 81: 532-538; and Si et al., 2001 Envelope glycoprotein determinants of neutralization resistance in a simian-human immunodeficiency virus (SHIV-HXBc2P 3.2) derived by passage in monkeys. J Virol, 75:4208-4218; both incorporated herein by reference). […] D-luciferin (50 μL of 1 mM stock in 100 μL luciferin buffer) is then added to each well and luciferase activity measured using a luminometer (EG&G Berthold).
To assess the functional impact of hydrocarbon stapling on gp41-based fusion inhibitor activity, SAH-gp41 peptides were tested and compared to their unmodified counterparts in a luciferase-based HIV-1 infectivity assay. Recombinant HIV-1 bearing the envelope glycoproteins from three distinct HIV-1 strains, HXBc2, ADA, and HXBc2P 3.2, and a negative control virus bearing the amphotropic murine leukemia virus (A-MLV) envelope glycoproteins, were evaluated. […]

[3] = test system: HIV-1 HXBc2 virus bearing HR1 double mutations V38A/N42T and V38E/N42S; test: HIV-1 infectivity assay, enfuvirtide-resistant HR1 double mutants; type: cell-based
Protocol: as §1

[4] = in vivo; details: mouse, plasma, iv
Source text: Plasma concentration, mean+standard error; ND, nondetectable.

[5] = Pharmacokinetics in mice, intravenous or oral gavage; type: in vivo, Male C57/BL6 mice
Protocol: Peptides were incubated (5-10 μg) with mouse plasma at 37° C. or injected (10, mg/kg) by tail vein into male C57/BL6 mice. […] For ex vivo serum stability studies, peptide half-lives were calculated by nonlinear regression analysis of exponential decay curves plotted using Prism software (Graphpad). In vivo plasma concentrations at the indicated time points were used to calculate plasma half-life, peak plasma levels, total plasma clearance, and apparent volume of distribution using noncompartmental analysis.
Blood samples withdrawn at 30 minutes by retro-orbital bleed were subjected to quantitation using LC/MS-based blood tests.

[6] = Chymotrypsin, pH 7
Source text: Table printed on a drawing sheet, FIG. 17C
Title: Chymotrypsin, pH 7
First reader's note: The table also serves as the legend of the plot of fraction intact over time; the line and marker symbols are left out.

## CCCC[C@H](NC(C)=O)C(=O)N[C@H](C(=O)N[C@@H](Cc1c[nH]c2ccccc12)C(=O)N[C@@]1(C)CCCC=CCCC[C@@](C)(C(=O)N[C@@H](CCC(=O)O)C(=O)N[C@H](C(=O)N[C@@H](CC(N)=O)C(=O)N[C@@H](CC(N)=O)C(=O)N[C@@H](Cc2ccc(O)cc2)C(=O)N[C@H](C(=O)N[C@@H](CO)C(=O)N[C@@H](CC(C)C)C(=O)N[C@H](C(=O)N[C@@H](Cc2c[nH]cn2)C(=O)N[C@@H](CO)C(=O)N[C@@H](CC(C)C)C(=O)N[C@H](C(=O)N[C@@H](CCC(=O)O)C(=O)N[C@@H](CCC(=O)O)C(=O)N[C@@H](CO)C(=O)N[C@@H](CCC(N)=O)C(=O)N[C@@H](CC(N)=O)C(=O)N[C@@H](CCC(N)=O)C(=O)N[C@@]2(C)CCCC=CCCC[C@@](C)(C(=O)N[C@@H](CCC(N)=O)C(=O)N[C@@H](CCC(=O)O)C(=O)N[C@@H](CC(C)C)C(=O)N[C@@H](CC(C)C)C(=O)N[C@@H](CCC(=O)O)C(N)=O)NC(=O)[C@H](CC(N)=O)NC(=O)[C@H](CCCCN)NC(=O)[C@H](CCC(=O)O)NC2=O)[C@@H](C)CC)[C@@H](C)CC)[C@@H](C)O)[C@@H](C)CC)NC(=O)[C@H](CC(=O)O)NC(=O)[C@H](Cc2c[nH]c3ccccc23)NC(=O)[C@H](CCC(=O)O)NC1=O)[C@@H](C)O [SAH-gp41(626-662)(A, F)] (Ac-[Nle]TW[S5]EWD[S5]EINNYTSLIHSLIEESQNQ[S5]EKN[S5]QELLE-NH2; staple 4-8, 28-32; N-terminus and C-terminus assumed)
[1]
  anti-HIV-1 (anti-viral) activity, in words: potent anti-viral activity
[2]
  anti-YU2 activity, in words: enhanced anti-YU2 activity
[3]
  functional activity against HR1 double-mutant HIV-1, in words: dose-responsively suppressed HIV-1 infectivity
[4]
  Cmax: 140 µg/mL
other
  CL: 1.0 mL/min/kg
[5]; 10 mg/kg, blood samples at 30 minutes
  level measured in the blood, fold of unmodified peptide: more than 6 fold
[5]; intravenous, 10 mg/kg, plasma concentrations of intact peptide
  in vivo stability, in words: marked in vivo stability
[5]; noncompartmental analysis
  fold decrease in clearance: about 10 fold
[5]; noncompartmental analysis, serial blood draws
  fold enhancement in area under the curve (AUC): about 10 fold
[5]; oral gavage, 30 minutes after administration
  intact peptide in blood/plasma after oral administration: measurable and dose-responsive levels; also recorded: measurable and dose-responsive plasma concentrations
[6]
  Half-Life: 5.58 h
